Data set [1] deals with T1, Mitogen-activated protein kinase kinase kinase 14 (Homo sapiens, UniProt Q99558). The data set can be described thus: Inhibition of recombinant human N-terminal GST-tagged NIK (318 to 947 residues) expressed in baculovirus infected Sf9 cells using ultrapure ATP as substrate measured after 1 hr by ADP-glo assay. (In general: In ADP-Glo the light output rises with the ADP produced.)

Data set [2] in a line: Stability of the compound in pH 1 aqueous solution. In kind it is physicochemical. The note with it: buffer.
Data set [3] is described as follows: Oral bioavailability in ICR mouse. To be noted: in vivo. In kind it is ADME, organism-based.
Data set [4] deals with Hepatocyte. The data set can be described thus: Down regulation of NIK expression in NIK/p100 adenoviruses infected C57BL/6 mouse primary hepatocytes at 5 uM measured after 16 hrs by Western blot analysis. In kind it is functional, cell-based. In general terms: A western blot detects proteins with antibodies after separation by electrophoresis.
Data set [5] relates to Mus musculus. The data set can be described thus: Antiinflammatory activity in CCl4-induced C57BL/6 mouse model of liver injury assessed as reduction in immune cell infiltration in liver at 25 mg/kg, po administered 30 mins prior to CCl4 addition followed by compound redosing at 3 hrs interval for 9 hrs and measured 12 hrs […] by F4/80/DAPI staining based immunofluorescence assay. In kind it is functional, organism-based.

Data set [6] has as its target T1, Mitogen-activated protein kinase kinase kinase 14. The data set can be described thus: Inhibition of human NIK using ATP as substrate by kinase-glo assay.
Data set [7] addresses Mitogen-activated protein kinase kinase kinase 14 (Mus musculus) (UniProt Q9WUL6). The data set can be described thus: Inhibition of NIK in NIK/p100 adenoviruses infected C57BL/6 mouse primary hepatocytes assessed as suppression of NIK-mediated proteolysis of p100 to p52 by measuring reduction in p52 level at 5 uM measured after 16 hrs by Western blot analysis.

Active and inactive are the calls of the source. The rule behind the calls is not given here. Some results are limits rather than exact numbers.

The results in this text go back to ChEMBL document CHEMBL4402589, “Discovery of a Potent and Selective NF-κB-Inducing Kinase (NIK) Inhibitor That Has Anti-inflammatory Effects in Vitro and in Vivo” (J Med Chem, 2020).

T1 sequence (Q99558 whole entry, the tested form may be a part): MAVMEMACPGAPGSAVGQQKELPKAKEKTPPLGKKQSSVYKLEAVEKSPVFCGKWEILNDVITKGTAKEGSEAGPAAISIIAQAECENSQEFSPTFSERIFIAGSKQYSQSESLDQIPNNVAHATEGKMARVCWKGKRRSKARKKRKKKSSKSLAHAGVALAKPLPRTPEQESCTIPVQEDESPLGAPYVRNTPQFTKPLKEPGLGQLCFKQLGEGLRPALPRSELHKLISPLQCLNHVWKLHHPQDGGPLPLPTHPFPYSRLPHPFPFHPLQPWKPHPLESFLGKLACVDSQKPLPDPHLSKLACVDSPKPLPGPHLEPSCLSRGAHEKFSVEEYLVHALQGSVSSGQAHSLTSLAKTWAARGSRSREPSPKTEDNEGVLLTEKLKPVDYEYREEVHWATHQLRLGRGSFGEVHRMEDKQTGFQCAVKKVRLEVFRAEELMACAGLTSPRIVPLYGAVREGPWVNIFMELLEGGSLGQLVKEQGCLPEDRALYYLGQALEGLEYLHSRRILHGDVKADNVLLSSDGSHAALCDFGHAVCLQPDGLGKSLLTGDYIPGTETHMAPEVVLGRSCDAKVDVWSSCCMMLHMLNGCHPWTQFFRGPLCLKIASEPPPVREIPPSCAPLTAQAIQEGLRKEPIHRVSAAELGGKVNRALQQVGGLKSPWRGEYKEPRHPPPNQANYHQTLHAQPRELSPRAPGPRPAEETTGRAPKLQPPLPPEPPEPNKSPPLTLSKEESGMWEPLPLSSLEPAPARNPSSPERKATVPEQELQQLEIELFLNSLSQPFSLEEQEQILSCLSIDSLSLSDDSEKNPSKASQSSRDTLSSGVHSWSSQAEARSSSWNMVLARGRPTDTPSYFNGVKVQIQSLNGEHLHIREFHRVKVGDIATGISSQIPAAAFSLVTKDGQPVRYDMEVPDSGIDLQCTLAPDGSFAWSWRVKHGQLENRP
Chain of Mitogen-activated protein kinase kinase kinase 14 (Mus musculus) (Q9WUL6 whole entry): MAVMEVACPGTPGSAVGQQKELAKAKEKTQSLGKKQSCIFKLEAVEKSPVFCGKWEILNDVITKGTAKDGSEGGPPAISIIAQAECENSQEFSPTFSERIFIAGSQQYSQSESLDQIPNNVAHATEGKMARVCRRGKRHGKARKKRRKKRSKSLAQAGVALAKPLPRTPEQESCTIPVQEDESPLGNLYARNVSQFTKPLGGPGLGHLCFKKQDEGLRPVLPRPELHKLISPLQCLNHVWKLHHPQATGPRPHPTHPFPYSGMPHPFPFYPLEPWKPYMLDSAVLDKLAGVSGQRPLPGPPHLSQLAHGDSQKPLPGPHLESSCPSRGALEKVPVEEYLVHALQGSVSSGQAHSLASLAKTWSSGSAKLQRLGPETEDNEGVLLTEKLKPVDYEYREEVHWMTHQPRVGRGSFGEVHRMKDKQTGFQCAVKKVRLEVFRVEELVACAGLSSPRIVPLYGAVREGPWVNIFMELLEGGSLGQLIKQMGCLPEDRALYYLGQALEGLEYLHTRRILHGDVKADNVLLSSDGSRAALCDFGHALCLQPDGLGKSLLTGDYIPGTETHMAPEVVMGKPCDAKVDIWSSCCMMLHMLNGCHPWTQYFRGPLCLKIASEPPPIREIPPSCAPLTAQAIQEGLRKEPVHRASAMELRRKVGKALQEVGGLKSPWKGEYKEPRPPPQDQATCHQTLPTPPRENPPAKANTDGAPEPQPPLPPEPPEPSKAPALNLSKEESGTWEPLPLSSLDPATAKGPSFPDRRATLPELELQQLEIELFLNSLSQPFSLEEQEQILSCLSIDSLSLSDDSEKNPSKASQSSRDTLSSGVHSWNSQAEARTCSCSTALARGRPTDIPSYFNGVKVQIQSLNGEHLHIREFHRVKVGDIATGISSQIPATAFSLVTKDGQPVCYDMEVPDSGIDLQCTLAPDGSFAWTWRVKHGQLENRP

As to `COc1ccc(C#CC(C)(O)c2nccs2)cc1-n1ccc2cnc(N)nc21` (centres undefined), the IC50 (commonly the concentration that gives 50% inhibition) in data set [1] was 216 nM.
Take `CC(O)(C#Cc1ccc(F)c(-n2ccc3cnc(N)nc32)c1)c1nccs1` (centres undefined): the IC50 in data set [1] is 215 nM.
For the compound `Nc1ncc2ccn(-c3ccnc(C#CC4(O)CCC4)c3)c2n1`, the IC50 in data set [1] was found to be 388 nM.
For `Nc1ncc2ccn(-c3ccnc(C#CC4(O)CCCCC4)c3)c2n1`, in data set [1], the IC50 was found to be 1570 nM.
Consider `CC(O)(C#Cc1cc(-n2ccc3cnc(N)nc32)ccc1F)c1nccs1` (centres undefined), for which, in data set [1], the IC50 came to 204 nM.
Consider `Nc1ncc2ccn(-c3ccnc(C#CC4(O)CCNCC4)c3)c2n1`, for which, in data set [1], the IC50 is greater than 10000 nM.
`CC(O)(C#Cc1cncc(-n2ccc3cnc(N)nc32)c1)c1nccs1` (centres undefined): the IC50 in data set [1] amounted to 1860 nM.
With `Cc1nc(N)nc2c1ccn2-c1ccnc(C#CC2(O)CCN(C)C2=O)c1` (centres undefined), the IC50 in data set [1] is 85.2 nM.
With `CN(C)C(=O)C(C)(O)C#Cc1cccc(-c2c[nH]c3cnc(N)nc23)c1` (centres undefined), the IC50 in data set [1] was greater than 10000 nM.
Regarding `COCCOc1ccc(-n2ccc3cnc(N)nc32)cc1C#CC(C)(O)c1nccs1` (centres undefined), the IC50 in data set [1] came to 25800 nM.
In the case of `CCc1nc(N)nc2c1ccn2-c1ccnc(C#CC2(O)CCN(C)C2=O)c1` (centres undefined), the IC50 in data set [1] came to 190 nM.
Turning to `CC(O)(C#Cc1cc(-n2ccc3cnc(N)nc32)ccn1)C(=O)N1CCCC1` (centres undefined), in data set [1], the IC50 is 6160 nM.
Take `CNc1ccc(-n2ccc3cnc(N)nc32)cc1C#CC(C)(O)c1nccs1` (centres undefined): the IC50 in data set [1] was greater than 10000 nM.
Take `CC(O)(C#Cc1cccc(-c2c[nH]c3cnc(N)nc23)c1)C1CCCCC1` (centres undefined): the IC50 in data set [1] was determined as 2030 nM.
As for `Cc1ccc(-n2ccc3cnc(N)nc32)cc1C#CC(C)(O)c1nccs1` (centres undefined), in data set [1], the IC50 was determined as 11700 nM.
As to `CC(O)(C#Cc1ccc(F)c(-c2c[nH]c3cnc(N)nc23)c1)c1nccs1` (centres undefined), the half-maximal inhibitory concentration (IC50) in data set [1] turned out to be 85.5 nM. The Stability entry in data set [2] was “Stable”.
Regarding `CC(O)(C#Cc1cc(-n2ccc3cnc(N)nc32)ccn1)c1cnccn1` (centres undefined), the IC50 in data set [1] amounted to 1640 nM.
On to `CCC(O)(C#Cc1cc(-n2ccc3cnc(N)nc32)ccn1)c1nccs1` (centres undefined), for which the IC50 in data set [1] was determined as 2290 nM.
In the case of `Cc1cc(C(C)(O)C#Cc2cc(-n3ccc4cnc(N)nc43)ccn2)no1` (centres undefined), the IC50 in data set [1] came to 120 nM.
Regarding `COc1ccc(C#CC(C)(O)c2nccs2)cc1-c1c[nH]c2cnc(N)nc12` (centres undefined), the IC50 in data set [1] came to 120 nM.
As to `CN1CCC(O)(C#Cc2cc(-n3ccc4ccc(N)nc43)ccn2)C1=O` (centres undefined), the half-maximal inhibitory concentration (IC50) in data set [1] was 2480 nM.
With `CC(O)(C#Cc1cccc(-n2ccc3cnc(N)nc32)c1)c1nccs1` (centres undefined), the IC50 in data set [1] is 303 nM.
On to `CC(O)(C#Cc1cccc(-c2c[nH]c3cnc(N)nc23)c1F)c1nccs1` (centres undefined), for which the IC50 in data set [1] came to 10900 nM.
Take `CC(O)(C#Cc1cccc(-c2c[nH]c3cnc(N)nc23)c1)c1cnccn1` (centres undefined): the IC50 in data set [1] worked out at 468 nM.
Still for that read-out and setting: to `CN(C)CCOc1ccc(-n2ccc3cnc(N)nc32)cc1C#CC(C)(O)c1nccs1` (centres undefined) belongs greater than 10000 nM; to `CC(O)(C#Cc1cc(F)cc(-c2c[nH]c3cnc(N)nc23)c1)c1nccs1` (centres undefined), 319 nM; to `CC(O)(C#Cc1ccc(-n2ccc3cnc(N)nc32)cc1)c1nccs1` (centres undefined), 3840 nM.
Regarding `CC(O)(C#Cc1cccc(-c2c[nH]c3cnc(N)nc23)c1)c1nccs1` (centres undefined), the IC50 in data set [1] was 218 nM.
The same measure, in the same setting: as for `COc1cccc(C(C)(O)C#Cc2cccc(-c3c[nH]c4cnc(N)nc34)c2)n1` (centres undefined), the figure is greater than 10000 nM; as for `CC(O)(C#Cc1cc(Cl)cc(-c2c[nH]c3cnc(N)nc23)c1)c1nccs1` (centres undefined), greater than 10000 nM; as for `Nc1ncc2ccn(-c3ccnc(C#CC4(O)CCCC4)c3)c2n1`, 234 nM.
`CC(O)(C#Cc1cc(C#N)cc(-n2ccc3cnc(N)nc32)c1)c1nccs1` (centres undefined): in data set [1], the IC50 came to 2060 nM.
`Nc1ncc2ccn(-c3ccnc(C#CC4(O)CCCCCC4)c3)c2n1`: the IC50 in data set [1] worked out at 748 nM.
`CC(C)(O)C#Cc1cccc(-c2c[nH]c3cnc(N)nc23)c1`: the IC50 in data set [1] was 720 nM.
Turning to `Nc1ncc2[nH]cc(-c3cccc(C#CC(O)c4nccs4)c3)c2n1` (centres undefined), the IC50 in data set [1] was 6380 nM.
As for `CN1CCC(O)(C#Cc2cc(-n3ccc4cnc(N)nc43)ccn2)C1=O` (centres undefined), the IC50 in data set [1] worked out at 26.1 nM. For the same compound, in data set [3], the bioavailability (usually dose-corrected exposure relative to a reference, in per cent) was less than 1%.
With `CC(O)(C#Cc1cc(-n2ccc3cnc(N)nc32)c(F)cc1F)c1nccs1` (centres undefined), the IC50 in data set [1] came to 641 nM.
Turning to `COc1nc(N)nc2c1ccn2-c1cccc(C#CC(C)(O)c2nccs2)c1` (centres undefined), in data set [1], the IC50 is 2480 nM.
Still for that read-out and setting: to `Cc1cc(C(C)(O)C#Cc2cccc(-c3c[nH]c4cnc(N)nc34)c2)no1` (centres undefined) belongs 290 nM.
For `C[C@@](O)(C#Cc1ccc2c(c1)N(c1nc(N)ncc1Cl)CC2)c1nccs1`, the result in data set [4] was inactive. The outcome in data set [5] was Active. For the same compound, the IC50 in data set [6] came to 4.2 nM; in data set [1] it was 15.1 nM. Also, in data set [7], the inhibition result is “Active”.
Consider `Cc1ccc(C#CC(C)(O)c2nccs2)cc1-n1ccc2cnc(N)nc21` (centres undefined), for which the IC50 in data set [1] stood at 335 nM.
On to `CC(O)(C#Cc1cc(-n2ccc3cnc(N)nc32)ccc1C#N)c1nccs1` (centres undefined), for which the IC50 in data set [1] amounted to 219 nM.
For `COc1ccc(-n2ccc3cnc(N)nc32)cc1C#CC(C)(O)c1nccs1` (centres undefined), the concentration for half-maximal inhibition (IC50) in data set [1] came to 1750 nM.
With `C[C@](O)(C#Cc1ccc(F)c(-c2c[nH]c3cnc(N)nc23)c1)c1nccs1`, in data set [1], the IC50 turned out to be 2230 nM.
On to `CC(O)(C#Cc1cc(-n2ccc3cnc(N)nc32)ccn1)c1nccs1` (centres undefined), for which the IC50 in data set [1] was 22.4 nM. Also, the Stability result in data set [2] is “Unstable”.
As for `CC(O)(C#Cc1cccc(-c2c[nH]c3cnc(N)nc23)c1)C(=O)N1CCCC1` (centres undefined), the IC50 in data set [1] is greater than 10000 nM.
For the compound `Cc1[nH]c2cnc(N)nc2c1-c1cccc(C#CC(C)(O)c2nccs2)c1` (centres undefined), in data set [1], the IC50 stood at 2200 nM.
With `CC(O)(C#Cc1cc(-n2ccc3cnc(N)nc32)c(F)cn1)c1nccs1` (centres undefined), the IC50 in data set [1] was 87.3 nM.
Consider `CN1CCCC(O)(C#Cc2cc(-n3ccc4cnc(N)nc43)ccn2)C1=O` (centres undefined), for which, in data set [1], the IC50 stood at 25.7 nM.
With `CN(C)C(=O)c1ccc(-n2ccc3cnc(N)nc32)cc1C#CC(C)(O)c1nccs1` (centres undefined), the IC50 in data set [1] was greater than 10000 nM.
As to `CN1CCC(O)(C#Cc2ccc(F)c(-c3c[nH]c4cnc(N)nc34)c2)C1=O` (centres undefined), the IC50 in data set [1] turned out to be 5.9 nM. Besides, the bioavailability in data set [3] is 7%. Also, in data set [2], the Stability result is given as “Stable”.
As to `CN1CCC(O)(C#Cc2cccc(-c3c[nH]c4cnc(N)nc34)c2)C1=O` (centres undefined), the IC50 in data set [1] amounted to 410 nM.
In the case of `Nc1ncc2[nH]cc(-c3cccc(C#CC4(O)CCCC4)c3)c2n1`, the IC50 in data set [1] was 475 nM.
On the same count and under the same terms, as for `COc1cc(C#CC(C)(O)c2nccs2)cc(-c2c[nH]c3cnc(N)nc23)c1` (centres undefined), the figure is 290 nM.
With `CC(O)(C#Cc1cccc(-n2cc(Cl)c3cnc(N)nc32)c1)c1nccs1` (centres undefined), in data set [1], the IC50 stood at 2060 nM.
